# Results reported in patent publication US20250082633A1, “COMPOUNDS AND METHODS FOR MODULATING SPLICING” (REMIX THERAPEUTICS INC., priority 2021, published 2025).
# Where two headings read alike, the source gives them in different places.
# Tests used:
# Assay type in all cases: cell-based
# K562 cells = assay: Cell Titer Glo 2.0 cell viability assay; settings: Homo sapiens, 500 cells/well, 72 hours
# How it was run: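 K562 cells (500/well) in IMDM with 10% FBS were exposed to serially diluted compounds at 0.1% DMSO final. After 72 h at 37° C, 5% CO2, viability was read by CellTiter-Glo 2.0 luminescence, with medium-only blanks.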
# SMN2 mRNA = assay: RT-qPCR splicing assay, gene panel, SMN2 canonical junction (CJ) mRNA; settings: Homo sapiens, read-out: SMN2 CJ IC50
# How it was run: (§1)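 A673 (DMEM/10% FBS) or K562 (IMDM/10% FBS) cells were treated 24 h at 37 °C with an 11-point 3-fold dilution series, top final 10 uM, DMSO ≤0.25%. Lysates underwent one-step RT-qPCR for the canonical-junction isoform with GAPDH, GUSB or PPIA as housekeeper. ΔΔCt versus DMSO was converted to RQ (2^−ΔΔCt), then to percent response.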
# HTT mRNA = assay: RT-qPCR splicing assay, HTT canonical (CJ) and alternative (AJ) junction mRNA; settings: Homo sapiens; for IC50: read-out: HTT CJ IC50; for AC50: read-out: HTT AJ AC50
# How it was run: (§2)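 Splice-junction mRNAs (CJ, AJ) measured by TaqMan one-step RT-qPCR on cell lysates, using PPIA as reference for adherent A673 and GAPDH or GUSB for K562. Cells exposed for 24 h to 11 threefold concentrations up to 10 uM final, with DMSO at or below 0.25%.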
# Target C = assay: RT-qPCR splicing assay, gene panel, Target C canonical junction (CJ) mRNA; settings: Homo sapiens, read-out: Target C CJ IC50
# How it was run: as §1
# MYB mRNA = assay: RT-qPCR splicing assay, MYB canonical (CJ) and alternative (AJ) junction mRNA; settings: Homo sapiens; for IC50: read-out: MYB CJ IC50; for AC50: read-out: MYB AJ AC50
# How it was run: as §2
# [1] = decrease in CJ mRNA levels, larger panel of genes, Table 3
# [2] = decrease in canonical junction mRNA, A673 or K562 cells, 24 hours treatment, Table 2
# [3] = increase in alternative junction mRNA, A673 or K562 cells, 24 hours treatment, Table 2
SMILES,GI50 (K562 cells),IC50 (SMN2 mRNA; [1]),IC50 (HTT mRNA; [1]),IC50 (HTT mRNA; [2]),AC50 (HTT mRNA; [3]),IC50 (Target C; [1]),IC50 (MYB mRNA; [1]),IC50 (MYB mRNA; [2]),AC50 (MYB mRNA; [3]),IC50 (SMN2 mRNA),AC50 (HTT mRNA; 24 h),IC50 (HTT mRNA; 24 h),IC50 (HTT mRNA),IC50 (Target C),AC50 (MYB mRNA; 24 h),IC50 (MYB mRNA; 24 h),IC50 (MYB mRNA)
"Cc1cn2nc(-c3cc(F)c4nn(C5CCN(CC6CC6)CC5)cc4c3)cc(C)c2n1 [Compound 149, 6-[2-[1-(cyclopropylmethyl)-4-piperidyl]-7-fluoro-indazol-5-yl]-2,8-dimethyl-imidazo[1,2-b]pyridazine]",< 100 nM,< 100 nM,< 100 nM,< 100 nM,< 100 nM,< 100 nM,100 to 1000 nM,100 to 1000 nM,100 to 1000 nM,–,–,–,–,–,–,–,–
"Cc1cn2nc(-c3cc4cn(C5CCNCC5)nc4cc3O)cc(C)c2n1 [Compound 154, 5-(2,8-dimethylimidazo[1,2-b]pyridazin-6-yl)-2-(piperidin-4-yl)-2H-indazol-6-ol]",100 to 1000 nM,< 100 nM,< 100 nM,< 100 nM,100 to 1000 nM,100 to 1000 nM,100 to 1000 nM,100 to 1000 nM,100 to 1000 nM,–,–,–,–,–,–,–,–
"COc1cc(-c2cc(C)c3nc(C)cn3n2)cc2cn(C3CCNCC3)nc12 [Compound 155, 6-(7-methoxy-2-(piperidin-4-yl)-2H-indazol-5-yl)-2,8-dimethylimidazo [1,2-b]pyridazine]",100 to 1000 nM,< 100 nM,< 100 nM,< 100 nM,100 to 1000 nM,100 to 1000 nM,100 to 1000 nM,100 to 1000 nM,100 to 1000 nM,–,–,–,–,–,–,–,–
"Cc1cn2nc(-c3cc(O)c4nn(C5CCNCC5)cc4c3)cc(C)c2n1 [Compound 156, 5-(2,8-dimethylimidazo[1,2-b]pyridazin-6-yl)-2-(piperidin-4-yl)-2H-indazol-7-ol]",1000 to 10000 nM,100 to 1000 nM,100 to 1000 nM,100 to 1000 nM,100 to 1000 nM,1000 to 10000 nM,1000 to 10000 nM,1000 to 10000 nM,1000 to 10000 nM,–,–,–,–,–,–,–,–
"Cc1ccc2nc(-c3cc(F)c4nn(C5CCNCC5)cc4c3)ccc2n1 [Compound 157, 2-[7-fluoro-2-(4-piperidyl)indazol-5-yl]-6-methyl-1,5-naphthyridine]",> 10000 nM,1000 to 10000 nM,> 10000 nM,> 10000 nM,> 10000 nM,> 10000 nM,1000 to 10000 nM,1000 to 10000 nM,> 10000 nM,–,–,–,–,–,–,–,–
"Fc1cc(-c2ccc3ccncc3c2)cc2cn(C3CCNCC3)nc12 [Compound 158, 7-[7-fluoro-2-(4-piperidyl)indazol-5-yl]isoquinoline]",1000 to 10000 nM,1000 to 10000 nM,> 10000 nM,> 10000 nM,> 10000 nM,> 10000 nM,> 10000 nM,> 10000 nM,> 10000 nM,–,–,–,–,–,–,–,–
"COc1cc2nn(C3CCNCC3)cc2cc1-c1cc(C)c2nc(C)cn2n1 [Compound 159, 6-(6-methoxy-2-(piperidin-4-yl)-2H-indazol-5-yl)-2,8-dimethylimidazo[1,2-b]pyridazine]",> 10000 nM,> 10000 nM,> 10000 nM,> 10000 nM,> 10000 nM,> 10000 nM,> 10000 nM,> 10000 nM,> 10000 nM,–,–,–,–,–,–,–,–
"Cc1cn2nc(-c3cc(F)c4nn(C5CCN(CCO)CC5)cc4c3)cc(C)c2n1 [Compound 160, 2-[4-[5-(2,8-dimethylimidazo[1,2-b]pyridazin-6-yl)-7-fluoro-indazol-2-yl]-1-piperidyl]ethanol]",100 to 1000 nM,–,–,–,–,–,–,–,–,< 100 nM,< 100 nM,< 100 nM,< 100 nM,100 to 1000 nM,100 to 1000 nM,100 to 1000 nM,100 to 1000 nM
"Fc1cc(-c2ccc3cnccc3c2)cc2cn(C3CCNCC3)nc12 [Compound 161, 6-[7-fluoro-2-(4-piperidyl)indazol-5-yl]isoquinoline]",1000 to 10000 nM,100 to 1000 nM,100 to 1000 nM,100 to 1000 nM,1000 to 10000 nM,1000 to 10000 nM,1000 to 10000 nM,1000 to 10000 nM,1000 to 10000 nM,–,–,–,–,–,–,–,–
